“Also recorded” adds a separate entry of the source. Where no end group is shown, it is not given here.
Columns and labels:
[1] = test system: Aeromonas salmonicida 99-1, A449
Protocol: (§3) Most non-fish bacterial strains as well as Candida albicans were grown at 37° C. in Mueller-Hinton Broth (MHB; Difco Laboratories, Detroit), while the fish bacteria were maintained at 16° C. in Tryptic Soy Broth (TSB; Difco, 5g/l NaCl).
(§4) Two field isolates of the salmonid pathogen Aeromonas salmonicida are from the IMB strain collection.
(§5) The activities of the antimicrobial peptides were determined as minimal inhibitory concentrations (MICs) using the microtitre broth dilution method of Amsterdam (Amsterdam, 1996), as modified by Wu and Hancock (1999). Serial dilutions of the peptide were made in water in 96-well polypropylene (Costar, Coming Incorporated, Coming, New York) microtiter plates. Bacteria or C. albicans were grown overnight to mid-logarithmic phase as described above, and diluted to give a final inoculum size of 10^6 cfu/ml. A suspension of bacteria or yeast was added to each well of a 96 well plate and incubated overnight at the appropriate temperature. […] Three repeats of each MIC determination were performed.

[2] = test system: Salmonella enterica s. Typhimurium 14028S (C587); assay type: cell-based; settings: lowest peptide concentration inhibiting growth by at least 50%; Mueller-Hinton broth
Protocol: (§6) Most non-fish bacterial strains as well as Candida albicans were grown at 37° C. in Mueller-Hinton Broth (MHB; Difco Laboratories, Detroit), while the fish bacteria were maintained at 16° C. in Tryptic Soy Broth (TSB; Difco, 5g/l NaCl). All strains were stored at −70° C. until they were thawed for use and sub-cultured daily. The following strains, Pseudomonas aeruginosa K799 (parent of Z61), Pseudomonas aeruginosa Z61 (antibiotic supersusceptible), Salmonella typhimurium 14028s (parent of MS7953s), Salmonella typhimurium MS7953s (defensin supersusceptible), as well as Staphylococcus epidermidis (human clinical isolates) and methicillin-resistant Staphylococcus aureus (MRSA; isolated by Dr. A. Chow, University of British Columbia) have been kindly donated by Prof R. E. W. Hancock, University of British Columbia.
as §5

[3] = test system: Pseudomonas aeruginosa K799 (H187); assay type: cell-based; settings: for Minimal inhibitory concentration, P. aeru K799: lowest peptide concentration inhibiting growth by at least 50%, Mueller-Hinton broth
Protocol: as §6, §5

[4] = test system: Escherichia coli DC2 (C500, outer membrane-permeable mutant); assay type: cell-based; settings: lowest peptide concentration inhibiting growth by at least 50%; Mueller-Hinton broth
Protocol: as §6, §5

[5] = test system: Escherichia coli UB1005 (C498); assay type: cell-based; settings: lowest peptide concentration inhibiting growth by at least 50%; Mueller-Hinton broth
Protocol: as §6, §5

[6] = test system: Escherichia coli C786, CGSC4908; assay type: cell-based; settings: lowest peptide concentration inhibiting growth by at least 50%; supplemented Mueller-Hinton broth
Protocol: All strains were stored at −70° C. until they were thawed for use and sub-cultured daily.
Escherichia coli strain CGSC 4908 (his-67, thyA43, pyr-37), auxotrophic for thymidine, uridine, and L-histidine (Cohen et al., 1963) was kindly supplied, free of charge, by the E.coli Genetic Stock Centre (Yale University, New Haven, Conn.). MHB supplemented with 5 mg/L thymidine, 10 mg/L uridine and 20 mg/L L-histidine (Sigma Chemical Co., St. Louis, Mo.), was used to grow E.coli CGSC 4908 unless otherwise specified.
The activities of the antimicrobial peptides were determined as minimal inhibitory concentrations (MICs) using the microtitre broth dilution method of Amsterdam (Amsterdam, 1996), as modified by Wu and Hancock (1999). Serial dilutions of the peptide were made in water in 96-well polypropylene (Costar, Coming Incorporated, Coming, New York) microtiter plates. Bacteria or C. albicans were grown overnight to mid-logarithmic phase as described above, and diluted to give a final inoculum size of 10^6 cfu/ml. A suspension of bacteria or yeast was added to each well of a 96 well plate and incubated overnight at the appropriate temperature. In the case of E. coli CGSC 4908, supplemented MHB was used. […] Three repeats of each MIC determination were performed.

[7] = test system: Aeromonas salmonicida 97-4
Protocol: as §3, §4, §5

[8] = test system: Staphylococcus epidermidis C621 (clinical isolate)
Protocol: as §6, §5

[9] = test system: methicillin-resistant Staphylococcus aureus (MRSA); experiment: Killing assay (survival at MIC and ten times MIC); assay type: cell-based; settings: Mueller-Hinton broth, FIG. 13
Protocol: (§1) Survival of bacteria and C. albicans upon exposure to selected peptides applied at their minimal inhibitory concentrations (MICs) and ten times their MICs was measured using standard methodology. The test organisms were grown in MHB and exposed to the peptides. At the specified time intervals equal aliquots were removed from the cultures, plated on MHB plates, and the resulting colonies were counted. Percentage survival was plotted against time on a logarithmic scale. Two repeats of each experiment were performed.
(§2) FIG. 13 describes Survival of a Gram-positive bacterium (methicillin-resistant Staphylococcus aureus—MRSA) upon exposure to NRC-15 at its minimal inhibitory concentration (MIC) and ten times its MIC. S. aureus was grown in Mueller-Hinton broth and exposed to NRC-15 at its MIC and ten times its MIC. At the specified intervals equal aliquots were removed from the culture, plated on MHB plates, and the resulting colonies were counted.

[10] = test system: Salmonella enterica s. Typhimurium MS4252S (C610, supersusceptible strain); assay type: cell-based; settings: lowest peptide concentration inhibiting growth by at least 50%; Mueller-Hinton broth
Protocol: as §6, §5

[11] = test system: methicillin-resistant Staphylococcus aureus (MRSA) C623, SAP017; settings: for Minimal inhibitory concentration, MRSA C623: methicillin-resistant C623, SAP017
Protocol: as §6, §5

[12] = test system: bacterial pathogens and C. albicans; experiment: Spectrum of antimicrobial activity (MIC panel, overall); assay type: cell-based; settings: summary of MIC results against bacteria and C. albicans
Protocol: Three repeats of each MIC determination were performed.
The minimal inhibitory concentrations of the chemically produced peptides against a wide range of baterial pathogens and C. albicans were determined and are shown in Table 9.

[13] = test system: Candida albicans C627, CALB105; settings: for Minimal inhibitory concentration, C. alb C627: C627, CALB105
Protocol: as §6, §5

[14] = test system: Pseudomonas aeruginosa Z61 (H188, supersusceptible strain); assay type: cell-based; settings: for Minimal inhibitory concentration, P. aeru Z61: lowest peptide concentration inhibiting growth by at least 50%, Mueller-Hinton broth
Protocol: as §6, §5

[15] = test system: Candida albicans; experiment: Killing assay (survival at MIC and ten times MIC); assay type: cell-based; settings: Mueller-Hinton broth, FIG. 15
Protocol: as §1
as §2, with “15” for “13”, “yeast (Candida albicans)” for “Gram-positive bacterium (methicillin-resistant Staphylococcus aureus—MRSA)”, “NRC-12” for “NRC-15”, “C. albicans” for “S. aureus”

[16] = test system: Pseudomonas aeruginosa; experiment: Killing assay (survival at MIC and ten times MIC); assay type: cell-based
Protocol: as §1
as §2, with “14” for “13”, “Gram-negative” for “Gram-positive”, “(Pseudomonas aeruginosa)” for “(methicillin-resistant Staphylococcus aureus—MRSA)”, “NRC-13” for “NRC-15”, “P. aeruginosa” for “S. aureus”

[17] = test system: P. aeruginosa K799; experiment: Killing assay in culture supplemented with NaCl; assay type: cell-based, Pseudomonas aeruginosa; settings: culture supplemented with 150 mM NaCl; 4 μg/ml (MIC) or 40 μg/ml (10×MIC); FIG. 25
Protocol: as §1
Peptides of the invention can be used at a range of pH's, salt concentrations, and temperatures. These peptides are useful against pathogens grown in biofilms or under any other conditions for pathogen growth or culture. See for example FIG. 25 in which the ability of NRC-13 to kill P. aeruginosa K799 in […] is shown. NRC-13 was added to a culture of P. aeruginosa supplemented with 150 mM NaCl to a final concentration of 4 μg/ml (□) or 40 μg/ml (Δ), representing the MIC and 10×MIC, respectively. A control with no peptide added is also shown (♦).

[18] = test system: Vibrio anguillarum; settings: Coho salmon; Jia et al. 2000; cited from earlier work

Substance	Minimal inhibitory concentration, A. sal 99-1 [1] [µg/mL]	Minimal inhibitory concentration, S. typh 14028s [2] [µg/mL]	Minimal inhibitory concentration, P. aeru K799 [3] [µg/mL]	Minimal inhibitory concentration, E. coli DC2 [4] [µg/mL]	Minimal inhibitory concentration, E. coli UB1005 [5] [µg/mL]	Minimal inhibitory concentration, E. coli C786 [6] [µg/mL]	Minimal inhibitory concentration, A. sal 97-4 [7] [µg/mL]	Minimal inhibitory concentration, S. epi C621 [8] [µg/mL]	Minimal inhibitory concentration, S. typh MS4252s [10] [µg/mL]	concentration inhibiting the growth of methicillin-resistant S. aureus [11] [µg/mL]	Minimal inhibitory concentration, MRSA C623 [11] [µg/mL]	antimicrobial activity, overall (in words) [12]	Minimal inhibitory concentration, C. alb C627 [13] [µg/mL]	Minimal inhibitory concentration, P. aeru Z61 [14] [µg/mL]	other results
GFWGKLFKLGLHGIGLLHLHL-NH2 [NRC-15]	8	16	8	8	8	8	16	4	4	4	4	broad spectrum of antimicrobial activity	16	4	ability to kill methicillin-resistant S. aureus [9]: ability to kill
GWKKWFNRAKKVGKTVGGLAVDHYL-NH2 [NRC-12]	2	8	4	2	8	2	2	8	2		16	broad spectrum of antimicrobial activity	4	1	ability to kill C. albicans [15]: ability to kill
GWRTLLKKAEVKTVGKLALKHYL-NH2 [NRC-13]	4	8		2	4	2	2	4	2	4	4	broad spectrum of antimicrobial activity; also recorded: highly active	4	1	MIC against P. aeruginosa K799 ([3]; text statement to FIG. 25): 4 µg/mL; ability to kill P. aeruginosa ([16]; at MIC and ten times MIC, Mueller-Hinton broth, FIG. 14): ability to kill; concentration killing P. aeruginosa ([16]; strain not stated): 1 µg/mL; concentration inhibiting the growth of A. salmonicida ([7]; strain not stated, value matches 97-4 of Table 8): 2 µg/mL; ability to kill P. aeruginosa K799 in NaCl [17]: kill; concentration inhibiting the growth of C. albicans [13]: 4 µg/mL; concentration inhibiting the growth of P. aeruginosa ([14]; strain not stated, value matches Z61 of Table 8): 1 µg/mL
WLRRIGKGVKIIGGAALDHL-NH2 [NRC-2]	>128	>64	64	64	64	64	128	>64	64		>64	only marginally active	>64	32	
pleurocidin (GWGSFFKKAAHVGKHVGKAALTHYL-NH2; UniProt P81941 23-47, looked up) [Synthetic pleurocidin, Synthetic pleurocidin identical to the central portion of WF2 (Jia et al. 2000)]															protection against infection by Vibrio anguillarum [18]: protect Coho salmon against infection

Reference: patent US20060093596A1, “Genomic approach to identification of novel broad-spectrum antimicrobial peptides from bony fish” (priority 2002, published 2006)
